Tested on: JRCSF (CCR5-tropic)
Assay: Luciferase assay / single round infection in TZM-bl cells, JRCSF
Assay type: cell-based, HIV
Conditions: TZM-bl luciferase indicator cells; FIG. 20
Text: FIGS. 10-14. Inhibitory effect of the bivalent molecules of the present invention on HIV spreading. The experiment is based on the activation of the luciferase gene upon infection of TZM-bl cells. X-axis depict 3 different dilutions of a virus stock (HXB2 (CRCX4-trop, virus 89.6 (Dual-trop) or JRCSF (CCR5-trop)) with unknown titer (1×, 5× and 25×). Y-axis depicts the amount of luminescence. Lower luminescence corresponds to greater inhibitory effect of the bivalent molecules of the present invention. (See also Example 4 elsewhere herein).
JRCSF is incubated in the presence of mol 500 in a concentration of 0.2 micrograms/ml and 0.1 micrograms/ml. JRCSF incubated without mol 500 is shown as a control. […]
The experiment is based on the activation of the luciferase gene upon infection of TZM-bl cells with 3 different virus strains (HXB2 (CRCX4-tropic), virus 89.6 (Dual-tropic) or JRCSF (CCR5-tropic)). The more luminescence measured, the greater activation of the luciferase gene has occurred, and the more inefficient the inhibition of infection has been by the molecule of the present invention […]
90 μl of Luciferin (britelite plus Perkin Elmer cat no: 6016761) is added to each well in order to start the chemo-luminescence reaction.
150 μl of the liquid is removed from each well and the luminescence is measured in a FLUO star Omega (BMG LABYECH Gmbh). […]

Question: With enfuvirtide as the substance, how does the “neutralization of JR-CSF, single round infection, in words” value read?
Answer: very minor effects
